Test results reported in patent US20120178158A1, “ADULT ANIMALS GENERATED FROM INDUCED PLURIPOTENT CELLS” (The Scripps Research Institute, priority 2009, published 2012).

How the values were obtained:
[1] = tested on: mouse embryonic fibroblasts (MEFs); experiment: Dox-inducible lentiviral reprogramming of fibroblasts to iPSC colonies; assay type: cell-based
Source text: We reasoned that inappropriate expression of reprogramming genes during development could inhibit embryonic and postnatal development. Therefore, we designed a drug-inducible lentiviral reprogramming strategy to achieve tight control of transgene expression in iPSCs and their derivatives (FIG. 1b)^19. The four original reprogramming factors (Oct4, Sox2, Klf4 and cMyc) were placed under control of the tetO promoter, which is activated by the reverse tetracycline transactivator (rtTA) protein in the presence of the tetracycline analog doxycycline (dox). We used an enhanced version of the rtTA transcriptional activator protein (rtTAM2.2) that induces higher gene expression levels than the rtTAM2 protein^20. To promote complete reprogramming and facilitate isolation of fully reprogrammed iPSCs we exposed MEFs to the histone deacetylase inhibitor valproic acid (VPA), which has been reported to enhance reprogramming efficiency^21 and to select against incompletely reprogrammed cells by inhibiting cell division^22 (Supplementary methods).
Generation of iPSCs. Mouse embryonic fibroblasts (MEFs) were prepared from Pcdh21/Cre-Z/EG (iMZ lines) or Nex/Cre-Z/EG (iNZ lines) E13.5 embryos. Generation of iMZ lines: After 24 hours in culture, individual wells of ˜300,000 MEFs were transduced with lentiviruses (day 1) and split 1:2 (day 2) and 1:3 (day 3) to generate 6 wells of transduced MEFs. On post-transduction day 4, dox (10 μg/ml) was added to four wells to induce expression of reprogramming genes; three of these wells were also treated with VPA (1.9 mM). The remaining two wells were treated with nothing, or VPA alone. To maintain conditions for optimal MEF growth and viability, on post-transduction day five, the three dox+VPA wells were expanded into a 15 cm^2 dish while the other three conditions were expanded to 10 cm^2 dishes. […] On day 14, additional colonies were isolated, of which 12 were expanded (lines iMZ-9-21) and characterized further. […] On post-transduction day 17, all putative iPSC lines were transferred to fresh feeders in single 96 well plates. Cell lines were expanded into two wells on post-transduction day 21. Cells were maintained in dox+VPA until post-transduction day 23, when both were removed. All cell lines appeared to maintain ESC like morphology and proliferation rates. Lines were expanded to 24 well plates on day 24. Subsequently, cell lines were banked and maintained as described in the cell culture conditions section. Generation of iNZ lines: Initial reprogramming conditions were identical to those of iMZ lines except that cells were split 1:2 on post-transduction day 3 to generate four wells (dox+VPA, dox only, VPA only and no treatment). Cells were split once after dox and VPA addition. […]

[2] = tested on: Gtl2/Dlk1 (Gtl2 locus); experiment: Methylation / activity of the Gtl2 locus in iPS cell lines derived with or without VPA; assay type: cell-based, mouse; settings: VPA+ (n = 15 cell lines)
Source text: In some embodiments, the induction conditions include contacting the cells with a histone deacetylase inhibitor or other compound that alters epigenetic marks. […] See, Stadfeld, et al., Nature. 465(7295):175-81 (2010); Liu et al., J Biol Chem. 285(25):19483-90 (2010). Normal ESCs express genes from one of the two parental chromosomes. Previous non-fully pluripotent IPSC lines have reduced expression from both parental Gtl loci by allowing extra epigenetic marking. These iPSC lines have methylated both Gtl2 loci and also may have distinct histone acetylation and methylation that turns off gene expression which correlates with or causes failure to generate live animals. The methods described herein produce a high frequency of cell lines that generate mice and these lines have an active and properly imprinted (i.e., hemi-methylated and histone acetylated) Gtl2 locus. When the epigenetic remodeling compound, VPA is removed from the method but no other variables are changed, the Gtl2 locus is no longer active or properly imprinted in the majority of cell lines. Therefore inclusion of VPA, or other histone deacetylase inhibitors or epigenetic remodeling compounds, regulates imprinting of the Gtl2 locus and other genomic regions that control pluripotency.

Row | Compound | post-transduction day on which colonies were observed ([1]; iMZ lines, Pcdh21/Cre-Z/EG MEFs, dox 10 μg/ml, VPA 1.9 mM from day 4) | post-transduction day on which colonies were observed ([1]; iNZ lines, Nex/Cre-Z/EG MEFs) | colonies observed on day 14 ([1]; iNZ lines, Nex/Cre-Z/EG MEFs, post-transduction day 14) | % iPS Cell Lines with Active Gtl2 Locus: % Locus Unmethylated High (>40%) ([2]; share of lines in class High (>40%)) [%] | % iPS Cell Lines with Active Gtl2 Locus: % Locus Unmethylated Low (1-10%) ([2]; share of lines in class Low (1-10%)) [%] | % iPS Cell Lines with Active Gtl2 Locus: % Locus Unmethylated Medium (10-40%) ([2]; share of lines in class Medium (10-40%)) [%] | % iPS Cell Lines with Active Gtl2 Locus: % Locus Unmethylated Negative (not detectable) ([2]; share of lines in class Negative (not detectable)) [%] | colony emergence in the absence of dox ([1]; iMZ MEFs, VPA alone 1.9 mM, no dox)
1 | C[C@H]1c2cccc(O)c2C(=O)C2=C(O)[C@]3(O)C(=O)C(C(N)=O)=C(O)[C@@H](N(C)C)[C@@H]3[C@@H](O)[C@@H]21 [dox, doxycycline] | 11 | 11 | 19 | – | – | – | – | –
2 | CCCC(CCC)C(=O)O [VPA, valproic acid] | – | – | – | 27 | 40 | 33 | 0 | No colonies emerged
